The results in this text go back to PubChem BioAssay (NCI).

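Step 1: Grow cells in 96-well plates. Step 2: Expose to compound for 48 hours at 5 concentrations. Step 3: Interpolate endpoints linearly; if unreached, use highest concentration. GI50 = concentration required for 50% inhibition of growth. TGI: total growth inhibition.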

Common to all, as to assay: NCI tumour cell line growth inhibition, 48 h
In test [1] the test system is COLO 205 colon.
Test [2] concerns HOP-62 NSCLC.
In test [3] the test system is K-562 leukemia.
Test [4] has as its system OVCAR-8 ovarian.
Test [5] deals with SK-MEL-2 melanoma.
Test [6] deals with SK-MEL-28 melanoma.
Test [7] relates to SK-OV-3 ovarian.
For test [8], the system named is SN12C renal.
For test [9], the system named is U251 CNS.
Test [10] has as its system UO-31 renal.

With `c1ccc(CCN2CCOCC2)nc1`, the TGI in test [1], in test [2], in test [3], in test [4], in [5] and in test [6] was over 100 µM each time. In addition, the TGI in [7], in test [8], in test [9] and in [10] was over 100 µM each time.
Regarding `O=C(Nc1cccc([N+](=O)[O-])c1)C(=O)C(C(=O)c1ccccc1F)C1OC(=O)C2C=CC=CC21` (stereo not drawn), the TGI in test [1], in test [2], in test [3], in [4], in [5] and in test [6] was over 100 µM in each case. Also, the TGI is over 100 µM in test [7], over 100 µM in test [8], 77.7 µM in test [9] and over 100 µM in test [10].
Regarding `N#Cc1c(-c2cccc(Cl)c2)cc(-c2ccc(Cl)cc2)nc1N`, the TGI in test [1] is 28.6 µM; in test [2], 36.3 µM; in test [3], over 100 µM; in test [4], 70.7 µM; in test [5] it was 36.7 µM; in test [7] it was 46.7 µM. For the same compound, the TGI was 34.4 µM in [8], 30.9 µM in [9] and 27.5 µM in [10].
Consider `CCOC(=O)C(=O)Nc1c(CC)cccc1C(C)CC` (stereo not drawn), for which the TGI in test [1], in [2], in test [3], in test [4], in test [5] and in [6] was over 100 µM throughout. For the same compound, the TGI in test [7], in test [8], in test [9] and in test [10] was over 100 µM in each case.
For `Cc1nc2c(O)cc3c4c(n(Cc5ccccc5)c3c2nc1C)C(=O)CCC4`, the TGI in [1] was over 100 µM; in [2], 39.9 µM; in test [3], over 100 µM; in [4], 52.6 µM; in test [5], 50.1 µM; in test [6], 76.2 µM. The TGI in test [7] is 69.6 µM; in test [8] it was over 100 µM; in test [9] it was 64 µM; in test [10], over 100 µM.
Regarding `O=C1C(c2c(O)[nH]c3ccccc23)=Nc2ccc(Br)cc21`, the TGI is over 100 µM in test [1]; 74.1 µM in test [2]; over 100 µM in test [3]; 49.4 µM in test [4]; 93.9 µM in test [5]; over 100 µM in test [6]. Further, the TGI in test [7] was over 100 µM; in test [8], over 100 µM; in test [9], 48 µM; in test [10] it was 70.7 µM.
Take `COc1cc(NC(=O)CSc2nc3ccccc3c(=O)n2CCc2ccccc2)cc(OC)c1OC`: the GI50 in test [2] is 2.12 µM; in test [4] it was 2.7 µM; in test [5], 2.32 µM; in test [7] it was 1.93 µM; in [9], 2.1 µM. Further, the TGI in test [2] is 4.88 µM; in test [4] it was over 100 µM; in [5] it was 6.94 µM; in [7], 3.69 µM; in test [9], 5.2 µM.
Consider `O=C1C(=c2cc3c(c4ccccc24)=NC24CCCCC2C(c2ccccc2)C=C(c2ccccc2)N34)C(=O)c2ccccc21` (stereo not drawn), for which the TGI in [1], in test [2], in [3], in test [4], in [5] and in test [6] was over 100 µM in each case. Further, the TGI in test [7], in [8], in test [9] and in test [10] was over 100 µM each time.
As to `CCCC1=C(C(=O)OCC)C(c2ccccc2OC)C(C#N)=C(N)O1` (stereo not drawn), the GI50 in test [1] was 66.3 µM; in [2], over 100 µM; in [3], 31.9 µM; in [4] it was 43.8 µM; in test [5], over 100 µM; in test [6], 26.3 µM. For the same compound, the GI50 in [7] is over 100 µM; in test [8], 16.6 µM; in [9] it was 44.7 µM; in test [10], 37.5 µM. Also, the TGI in [1] was over 100 µM; in [2], over 100 µM; in test [3] it was over 100 µM; in [4] it was over 100 µM; in test [5] it was over 100 µM; in test [6], 79.4 µM. The TGI in test [7] was over 100 µM; in test [8], 41.4 µM; in test [9] it was over 100 µM; in test [10], over 100 µM.
For `CNS(=O)(=O)c1ccc2[nH]c(O)c(C3=Nc4ccccc4C3=O)c2c1`, the TGI in test [1], in test [2], in test [3], in test [5], in test [6] and in [7] was over 100 µM each time. For the same compound, the TGI in [8] is over 100 µM; in test [9], 39.8 µM; in test [10], over 100 µM.
For the compound `COc1cc2c(cc1OC)C1Cc3cc(OC)c(OC)cc3C(C2)O1`, the TGI in test [1], in [2], in test [3], in test [4], in [5] and in [6] was over 100 µM each time. Further, the TGI in test [7], in [8], in test [9] and in test [10] was over 100 µM throughout.
Regarding `Nc1cccc2c1C1=NNC(=O)CC1C2` (stereo not drawn), the TGI in [1], in test [2], in test [3], in test [4], in test [5] and in test [6] was over 100 µM each time. Besides, the TGI in [7], in test [8], in test [9] and in [10] was over 100 µM each time.
